Patent US12461089B2, “Olfactory receptor involved in the perception of musk fragrance and the use thereof” (ChemoSensoryX Biosciences SA, priority 2017, dated 2025)
Positions count from the first letter of the chain named. Read-outs that look alike come from different tables or passages of the source.

Columns and labels:
Format in all cases: cell-based
OR5A2_variant 1 [1] = target: T1, OR5A2_variant 1 (Homo sapiens, UniProt Q8NGI9); test: Luciferase reporter deorphanisation screening of odorant libraries (891 compounds) on OR5A2; settings: HEK293T-RTP1A1/RTP2 cells; each compound at 1 mM, 316 μM, 100 μM; hit = luciferase activity >= median + 2 standard deviations
T1 construct: expressed in transfected cells; host or cells: HEK293T-RTP1A1/RTP2
T1 sequence (Q8NGI9 1-324): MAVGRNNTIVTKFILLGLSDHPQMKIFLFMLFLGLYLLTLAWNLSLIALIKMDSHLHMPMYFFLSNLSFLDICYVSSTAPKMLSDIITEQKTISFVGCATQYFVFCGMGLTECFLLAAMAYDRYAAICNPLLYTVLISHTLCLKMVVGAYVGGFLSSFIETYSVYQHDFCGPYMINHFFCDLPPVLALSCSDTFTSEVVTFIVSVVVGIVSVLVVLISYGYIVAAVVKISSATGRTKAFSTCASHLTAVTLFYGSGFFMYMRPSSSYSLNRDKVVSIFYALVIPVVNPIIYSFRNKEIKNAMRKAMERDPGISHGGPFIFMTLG
Method: (§1) HEK293T-RTP1A1/RTP2 cells were maintained in minimal essential medium (EMEM, Lonza) containing 10% fetal bovine serum (M10). These cells were generated by transfecting HEK293T with an expression vector containing the sequences of the chaperone proteins RTP1A1 and RTP2 and a resistance gene to puromycin, using Lipofectamine 2000.
(§2) Odorant molecules were diluted at a concentration of 1 mole/liter (M) into dimethyl sulfoxide (DMSO) to generate stock solutions.
For screening experiments, stock solutions of odorant molecules were diluted in EMEM disposed in 96-well plates.
(§3) For the initial deorphanisation screening and dose-response analysis, a Luciferase-based gene reporter assay (Promega, Leiden, The Nederlands) was used. Briefly, cells were platted on Poly-D-lysine-coated 96-well and transfected with a plasmid containing the CRE-luciferase and a plasmid containing the olfactory receptor. Sixteen hours after transfection, the culture medium was replaced by serum-free EMEM containing the tested compounds at a determined concentration. After four hours of incubation at 37° C. degree, cells were lysed and processed for luminescence measurement. Luminescene emission was recorded. Results were expressed as luciferase activity (Relative […] Unit (RLU)) or as percentage of the response induced by 10 μM of the adenylate cyclase activator Forskolin. An empty plasmid is used as negative control.

OR5A2_variant 1 [2] = target: T1, OR5A2_variant 1; test: Luciferase reporter concentration-response analysis on OR5A2_variant 1
Method: as §1, §2
(§4) For concentration-response analysis, serial dilutions of the tested molecules were prepared from stock solutions in EMEM plated into 96-well plates.
as §3
35 musk compounds from the four structurally different chemical groups previously described were tested in concentration-response analyses (Table 2). In each experiment, an empty vector was used as negative control (pEFIBRHO). […] Full results including the calculated EC50 are given in Table 2; “non active” represent negative experiments, no activation after testing.

OR5AN1 = target: T2, OR5AN1 (Homo sapiens, UniProt Q8NGI8, E89G); test: Luciferase reporter concentration-response analysis on OR5AN1; settings: concentration-response analysis, luciferase reporter; values given as negative (log) numbers; Non Active = no activation after testing; read-out: calculated EC50, OR5AN1 (converted)
T2 construct: expressed in transfected cells; host or cells: HEK293T-RTP1A1/RTP2
T2 sequence (Q8NGI8 1-311 E89G): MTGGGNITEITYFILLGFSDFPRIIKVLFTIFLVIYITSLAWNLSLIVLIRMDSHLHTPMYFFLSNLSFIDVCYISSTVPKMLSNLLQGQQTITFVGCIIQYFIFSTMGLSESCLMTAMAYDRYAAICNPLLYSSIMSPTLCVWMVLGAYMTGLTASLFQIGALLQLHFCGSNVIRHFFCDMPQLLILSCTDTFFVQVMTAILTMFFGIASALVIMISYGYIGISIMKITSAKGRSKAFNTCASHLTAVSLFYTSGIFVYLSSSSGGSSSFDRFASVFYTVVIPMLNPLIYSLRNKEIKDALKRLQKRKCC
Method: as §1, with “2000. The recombinant cell population, used in these experiments, was selected by adding 10 μg/ml of puromycin into the culture medium and subsequently subcloned (WO 2014/191047 A1).” for “2000.”
as §2, §4, §3
In these analyses we also included ORs previously described as musk-specific receptors OR5AN1 (SEQ ID n° 7) (WO 2015/020158 A1, Shirasu et al. 2014 Neuron 81, 165-78, Sato-Akuhara N et al. 2016 J Neurosci. 36(16), 4482-91) and OR11A1 (SEQ ID n° 8) (WO 2016/201152 A1). […] Therefore, OR5A1 was included in the analyses. 35 musk compounds from the four structurally different chemical groups previously described were tested in concentration-response analyses (Table 2). In each experiment, an empty vector was used as negative control (pEFIBRHO). […] Full results including the calculated EC50 are given in Table 2; “non active” represent negative experiments, no activation after testing. […]

OR5A2_variant 2 = target: T3, OR5A2_variant 2 (Homo sapiens, UniProt Q8NGI9, P172L); test: Luciferase reporter concentration-response analysis on haplotype OR5A2_variant 2 (P172L); settings: CRE-luciferase; empty vector pEFIBRHO as control
T3 construct: (P172L, OR5A2_variant 2); expressed in transfected cells; host or cells: HEK293T-RTP1A1/RTP2
T3 sequence (Q8NGI9 1-324 P172L): T1 sequence (Q8NGI9 1-324) with P172L
Method: as §1, §2, §4, §3
OR genes are highly variable, with many alleles resulting in differences in smell perception from person to person. These differences can be attributed to genetic variations like, for example, nucleotide polymorphisms. […] Amino acids alignment of the 2 haplotypes are represented in FIG. 4.
To test if the substitution could impact the musk sensitivity, luciferase assays were performed as described previously after transfection of both OR5A2 variants. Cells were treated with semi-logarithmic serial dilutions of musk compounds from the four structurally different groups described earlier. In each experiment, an empty vector was used as negative control (pEFIBRHO).

chimeric OR5A2_variant 1 = target: T4, chimeric OR5A2_variant 1 (Homo sapiens, UniProt Q8NGI9, F293L/H55R/I289L/M58T); test: Luciferase reporter concentration-response analysis on chimeric OR5A2_variant 1; settings: CRE-luciferase; empty vector pEFIBRHO as control
T4 construct: expressed in transfected cells; host or cells: HEK293T-RTP1A1/RTP2
T4 sequence (Q8NGI9 with tags, fused parts or gaps H55R/M58T/I289L/F293L): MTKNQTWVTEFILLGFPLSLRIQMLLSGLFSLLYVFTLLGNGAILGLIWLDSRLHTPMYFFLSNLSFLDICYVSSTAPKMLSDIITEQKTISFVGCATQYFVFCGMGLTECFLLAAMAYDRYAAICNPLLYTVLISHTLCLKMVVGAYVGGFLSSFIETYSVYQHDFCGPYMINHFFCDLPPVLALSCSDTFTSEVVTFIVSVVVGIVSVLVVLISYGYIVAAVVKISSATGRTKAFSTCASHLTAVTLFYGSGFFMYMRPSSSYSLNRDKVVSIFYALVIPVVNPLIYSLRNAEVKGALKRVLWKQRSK
Method: as §1, §2, §4, §3
(§5) To test if the amino acids substitution could impact the musk sensitivity, and specificity and to validate the Krautwurst's model, luciferase assays were performed as described previously after transfection of the chimeric OR5A2_variant 1. Cells were treated with semi-logarithmic serial dilutions of musk compounds from the four structurally different groups described earlier.
In each experiment, an empty vector was used as negative control (pEFIBRHO).

OR2A5 = target: T5, OR2A5 (Homo sapiens, UniProt Q96R48, A202S/A255T/I126V); test: Luciferase reporter concentration-response analysis on OR2A5; settings: CRE-luciferase
T5 construct: expressed in transfected cells; host or cells: HEK293T-RTP1A1/RTP2
T5 sequence (Q96R48 1-311 I126V/A202S/A255T): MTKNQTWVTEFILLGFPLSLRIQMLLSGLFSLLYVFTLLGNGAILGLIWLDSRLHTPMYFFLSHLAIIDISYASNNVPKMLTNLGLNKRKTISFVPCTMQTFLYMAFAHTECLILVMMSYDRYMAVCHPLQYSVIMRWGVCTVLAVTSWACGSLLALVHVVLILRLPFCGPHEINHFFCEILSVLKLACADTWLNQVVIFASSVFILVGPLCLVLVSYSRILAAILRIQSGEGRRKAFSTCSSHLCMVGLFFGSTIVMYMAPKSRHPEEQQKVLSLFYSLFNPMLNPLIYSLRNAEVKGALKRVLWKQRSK
Method: as §1, with “2000. The recombinant cell population, used in these experiments, was selected by adding 10 μg/ml of puromycin into the culture medium and subsequently subcloned (WO 2014/191047 A1).” for “2000.”
as §2, §4, §3
In 1998, Krautwurst and collaborators have provided a model system for the study of ligand specificity and structure-function relationships for olfactory receptors (Krautwurst et al., 1998 Cell 95, 917-26). […] Based on their publication, a chimeric OR5A2_variant 1 olfactory receptor was created containing the TM2-TM7 amino acid sequence of OR5A2_variant 1 flanked by the N-teminal and C-terminal sequence of the olfactory receptor OR2A5 (cf. SEQ ID NO: 12). This chimeric OR5A2_variant 1 receptor shared 86 percent identity with the native OR5A2_variant 1 receptor (FIG. 6A and SEQ ID NO: 10).
as §5

response of the OR of the invention (luciferase activity, hit) in library screening (OR5A2_variant 1 [1]) | EC50 (OR5A2_variant 1 [2]; concentration-response analysis, luciferase reporter, values given as negative (log) numbers, read-out: calculated EC50, OR5A2 (converted)) | EC50 (OR5AN1) | EC50 (OR5A2_variant 1 [2]) | activation of OR5A2 (OR5A2_variant 1), concentration-response (OR5A2_variant 1 [2]; CRE-luciferase, semi-logarithmic serial dilutions, empty vector pEFIBRHO as control) | activation of OR5A2_variant 2 (P172L), concentration-response (OR5A2_variant 2) | activation of chimeric OR5A2_variant 1, concentration-response (chimeric OR5A2_variant 1) | activation of OR2A5, concentration-response (OR2A5) | SMILES
respond specifically and exclusively | 49 µM | 66.1 µM | – | – | – | – | – | O=C1CCCCCCCCCCCC(=O)OCCO1 [Ethylene Brassylate]
respond specifically and exclusively | – | – | 21.9 µM | shows dose response curves | not activated | shows dose response curves | but not the OR2A5 | CC(OC(C)(C)COC(=O)C1CC1)C1CCCC(C)(C)C1 (stereo not shown) [Serenolide]

SMILES | response of the OR of the invention (luciferase activity, hit) in library screening (OR5A2_variant 1 [1]) | EC50 (OR5A2_variant 1 [2]; concentration-response analysis, luciferase reporter, values given as negative (log) numbers, read-out: calculated EC50, OR5A2 (converted)) | EC50 (OR5AN1) | EC50 (OR5A2_variant 1 [2]) | activation of OR5A2 (OR5A2_variant 1), concentration-response (OR5A2_variant 1 [2]; CRE-luciferase, semi-logarithmic serial dilutions, empty vector pEFIBRHO as control) | activation of OR5A2_variant 2 (P172L), concentration-response (OR5A2_variant 2) | activation of chimeric OR5A2_variant 1, concentration-response (chimeric OR5A2_variant 1) | activation of OR2A5, concentration-response (OR2A5)
C[C@H]1CC(C)(C)C2=C(C[C@@]3(C)O[C@H]3C2)C1(C)C [malaxone] | respond specifically and exclusively | – | – | – | – | – | – | –
